Measurements taken from PMC4895354 (2016).
Each block holds one compound with its values, some of them ahead of it.

Columns and labels:
DGCR8Δ = biological target: T1, DGCR8Δ (UniProt Q8WYQ5); test: EMSA; conditions: 2 mM Mg2+, 2 mM Ca2+; EMSA: 20 mM HEPES pH 7.5, 110 mM KCl, 110 mM NaCl, 0.1% BSA, 2 mM MgCl2, 2 mM CaCl2, 0.05% Tween-20, 5 mM DTT, 15 min, room temperature; native 5% PAGE
T1 sequence: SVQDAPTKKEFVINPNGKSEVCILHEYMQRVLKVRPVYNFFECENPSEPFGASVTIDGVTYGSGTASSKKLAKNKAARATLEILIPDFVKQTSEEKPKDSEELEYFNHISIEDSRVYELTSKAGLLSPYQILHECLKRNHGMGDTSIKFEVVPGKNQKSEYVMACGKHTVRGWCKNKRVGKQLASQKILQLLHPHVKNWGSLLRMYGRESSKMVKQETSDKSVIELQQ

[1] = test system: r(AUUCU)11, 5'-32P labelled (RNA, repeat) AUUCUAUUCUAUUCUAUUCUAUUCUAUUCUAUUCUAUUCUAUUCUAUUCUAUUCU; test: filter binding (dot blot); conditions: PBS, 1 mM MgCl2; pH 7.4; 50 μg/ml BSA; RNA 100 nM, compound 1 μM
[2] = test system: r(AUUCU)11 (RNA, repeat) AUUCUAUUCUAUUCUAUUCUAUUCUAUUCUAUUCUAUUCUAUUCUAUUCUAUUCU; test: fluorescence titration, sigmoidal fit; conditions: 185 mM NaCl, 8 mM Na2HPO4, pH 7.0, 0.1 mM EDTA
[3] = test system: r(AUUCU)11 (RNA, repeat) AUUCUAUUCUAUUCUAUUCUAUUCUAUUCUAUUCUAUUCUAUUCUAUUCUAUUCU; test: fluorescence titration, lattice (Scatchard-type) fit; conditions: 185 mM NaCl, 8 mM Na2HPO4, pH 7.0, 0.1 mM EDTA, microscopic Kd, per site
[4] = test system: r(AUUCU)11 for TR-FRET (RNA, repeat) AUUCUAUUCUAUUCUAUUCUAUUCUAUUCUAUUCUAUUCUAUUCUAUUCUAUUCU; test: TR-FRET, inhibition of RNA-protein complex; conditions: 110 mM KCl, 110 mM NaCl, 2 mM MgCl2, 2 mM CaCl2, 20 mM HEPES pH 7.5, DGCR8Δ 40 nM displaced, RNA 60 nM
[5] = test system: GCGC (RNA, hairpin) GCGCGCGCGAAAGCGCGCGC; test: fluorescence titration, sigmoidal fit; conditions: 185 mM NaCl, 8 mM Na2HPO4, pH 7.0, 0.1 mM EDTA, RNA titrated
[6] = test system: AAUU (RNA, hairpin) AAUUAAUUAAUUGAAAAAUUAAUUAAUU; test: fluorescence titration, sigmoidal fit; conditions: 185 mM NaCl, 8 mM Na2HPO4, pH 7.0, 0.1 mM EDTA, RNA titrated
[7] = test system: GGCC (RNA, hairpin) GGCCGGCCGAAAGGCCGGCC; test: fluorescence titration, sigmoidal fit; conditions: 185 mM NaCl, 8 mM Na2HPO4, pH 7.0, 0.1 mM EDTA, RNA titrated
[8] = test system: AUAU (RNA, hairpin) AUAUAUAUAUAUGAAAAUAUAUAUAUAU; test: fluorescence titration, sigmoidal fit; conditions: 185 mM NaCl, 8 mM Na2HPO4, pH 7.0, 0.1 mM EDTA, RNA titrated
[9] = test system: r(CGG)12 (RNA, repeat) CGGCGGCGGCGGCGGCGGCGGCGGCGGCGGCGGCGG; test: fluorescence titration, sigmoidal fit; conditions: 185 mM NaCl; 8 mM Na2HPO4, pH 7.0, 0.1 mM EDTA; range over four repeats 36–87 nM
[10] = test system: r(CCUG)12 (RNA, repeat) CCUGCCUGCCUGCCUGCCUGCCUGCCUGCCUGCCUGCCUGCCUGCCUG; test: fluorescence titration, sigmoidal fit; conditions: 185 mM NaCl; 8 mM Na2HPO4, pH 7.0, 0.1 mM EDTA; range over four repeats 36–87 nM
[11] = test system: r(CUG)12 (RNA, repeat) CUGCUGCUGCUGCUGCUGCUGCUGCUGCUGCUGCUG; test: fluorescence titration, sigmoidal fit; conditions: 185 mM NaCl; 8 mM Na2HPO4, pH 7.0, 0.1 mM EDTA; range over four repeats 36–87 nM
[12] = test system: r(AUUCU)11, 5'-32P labelled (RNA, repeat) AUUCUAUUCUAUUCUAUUCUAUUCUAUUCUAUUCUAUUCUAUUCUAUUCUAUUCU; test: RNase V1 protection; conditions: 1× RNA Structure Buffer; compound 0-20 μM; protects each AU pair
[13] = test system: AAUU (RNA, hairpin) AAUUAAUUAAUUGAAAAAUUAAUUAAUU; test: fluorescence titration, lattice (Scatchard-type) fit; conditions: 185 mM NaCl; 8 mM Na2HPO4, pH 7.0, 0.1 mM EDTA; microscopic Kd; per site
[14] = test system: AUAU (RNA, hairpin) AUAUAUAUAUAUGAAAAUAUAUAUAUAU; test: as above; conditions: 185 mM NaCl; 8 mM Na2HPO4, pH 7.0, 0.1 mM EDTA; microscopic Kd; per site

Compound: AUUCUAUUCUAUUCUAUUCUAUUCUAUUCUAUUCUAUUCUAUUCUAUUCUAUUCU [r(AUUCU)11]
Kd (DGCR8Δ): 1600 nM

binding [1]: yes
EC50 ([2]; without PEG 8000): 146 ± 8 nM
Kd ([3]; Hill 1.4±0.4): 185 ± 1.0 nM
binding ([4]; ~70% inhibition at 1.5 μM): yes
Compound: CCCN(CC(=O)N(CCC)CC(=O)N(CC(N)=O)Cc1cn(CCCNC(=N)c2ccc(-c3ccc(-c4ccc(C(=N)N)cc4)o3)cc2)nn1)C(=O)CNCc1cn(CCCNC(=N)c2ccc(-c3ccc(-c4ccc(C(=N)N)cc4)o3)cc2)nn1

EC50 ([5]; 1 μM compound): > 2,000 nM
EC50 ([6]; 1 μM compound, Hill 1.0±0.17): 45 ± 6 nM
Kd ([3]; Hill 1.3±0.1): 375 ± 34 nM
EC50 ([7]; 1 μM compound): > 6,000 nM
EC50 ([8]; 1 μM compound, Hill 1.0±0.13): 31 ± 4 nM
binding ([4]; ~25% inhibition at 1.5 μM): yes
Compound: [N-]=[N+]=NCCCNC(=N)c1ccc(-c2ccc(-c3ccc(C(=N)N)cc3)o2)cc1

binding ([2]; range over four repeats 36–87 nM): yes
EC50 ([5]; 3 μM compound, Hill 0.92±0.34): 240 ± 10 nM
EC50 ([6]; 3 μM compound, Hill 3.1±0.79): 170 ± 10 nM
binding [9]: yes
binding [10]: yes
EC50 ([7]; 3 μM compound, Hill 1.4±0.34): 390 ± 20 nM
binding [11]: yes
EC50 ([8]; 3 μM compound, Hill 1.5±0.32): 45 ± 1 nM
Compound: N=C(N)c1ccc(-c2ccc(-c3ccccc3)o2)cc1

binding [12]: yes
EC50 ([5]; 1 μM compound, Hill 0.77±0.16): 6,950±250 nM
Kd [13]: 320 nM
EC50 ([6]; 1 μM compound, Hill 1.5±0.24): 170 ± 40 nM
Kd [14]: 210 nM
Kd ([3]; Hill 1.7±0.2): 300 ± 47 nM
EC50 ([7]; 1 μM compound, Hill 0.85±0.08): 8,550±250 nM
EC50 ([8]; 1 μM compound, Hill 1.6±0.28): 190 ± 20 nM
Compound: N=C(N)c1ccc(-c2ccc(-c3ccc(C(=N)N)cc3)o2)cc1
